Experimental data taken from the NIST ThermoML archive (doi:10.1016/j.jct.2016.03.032).

Assay: mn = molality of the nth substance listed, in mol/kg
Details: 298.15 K, Liquid, Frequency=10 MHz, Single path-length method

NCC(=O)N[C@@H](Cc1ccc(O)cc1)C(=O)NCC(=O)O [glycyl-L-tyrosylglycine] + O
speed of sound [m/s]
Details | 10000 kPa | 20000 kPa | 40000 kPa | 60000 kPa | 80000 kPa | 100000 kPa | 120000 kPa
m1 = 0.02297 | 1516.3 | 1533.1 | 1566.7 | 1600.1 | 1633.5 | 1666.6 | 1699.5
m1 = 0.02401 | 1516.5 | 1533.2 | 1566.8 | 1600.3 | 1633.6 | 1666.8 | 1699.6
m1 = 0.02562 | 1516.7 | 1533.5 | 1567 | 1600.5 | 1633.9 | 1667 | 1699.8
m1 = 0.02676 | 1516.8 | 1533.6 | 1567.2 | 1600.7 | 1634 | 1667.1 | 1700
m1 = 0.02756 | 1516.9 | 1533.7 | 1567.3 | 1600.8 | 1634.1 | 1667.3 | 1700.1
m1 = 0.02905 | 1517 | 1533.9 | 1567.4 | 1601 | 1634.3 | 1667.5 | 1700.3

CC(C)C[C@H](NC(=O)CN)C(=O)NCC(=O)O [glycyl-L-leucylglycine] + O
speed of sound [m/s]
Details | 10000 kPa | 20000 kPa | 40000 kPa | 60000 kPa | 80000 kPa | 100000 kPa | 120000 kPa
m1 = 0.02682 | 1517.5 | 1534.2 | 1567.7 | 1601.1 | 1634.4 | 1667.5 | 1700.2
m1 = 0.03524 | 1518.6 | 1535.4 | 1568.9 | 1602.3 | 1635.6 | 1668.7 | 1701.4
m1 = 0.04618 | 1520.2 | 1537 | 1570.6 | 1604 | 1637.2 | 1670.2 | 1702.9
m1 = 0.05878 | 1522.1 | 1538.9 | 1572.4 | 1605.8 | 1639 | 1672 | 1704.7
m1 = 0.06956 | 1523.7 | 1540.5 | 1574 | 1607.3 | 1640.6 | 1673.5 | 1706.2
m1 = 0.07978 | 1525.2 | 1542 | 1575.5 | 1608.8 | 1642 | 1674.9 | 1707.5

NCC(=O)N[C@@H](CC(N)=O)C(=O)NCC(=O)O [glycyl-L-asparaginylglycine] + O
speed of sound [m/s]
Details | 10000 kPa | 20000 kPa | 40000 kPa | 60000 kPa | 80000 kPa | 100000 kPa | 120000 kPa
m1 = 0.01982 | 1515.6 | 1532.4 | 1566 | 1599.5 | 1632.8 | 1666 | 1698.8
m1 = 0.02619 | 1516.3 | 1533.1 | 1566.7 | 1600.2 | 1633.5 | 1666.7 | 1699.6
m1 = 0.02894 | 1516.6 | 1533.4 | 1567.1 | 1600.5 | 1633.9 | 1667 | 1699.9
m1 = 0.03507 | 1517.3 | 1534.1 | 1567.8 | 1601.3 | 1634.6 | 1667.8 | –
m1 = 0.03983 | 1517.8 | 1534.6 | 1568.3 | 1601.8 | 1635.1 | 1668.3 | –

NCC(=O)NCC(=O)NCC(=O)O [glycylglycylglycine] + O
speed of sound [m/s]
Details | 10000 kPa | 20000 kPa | 40000 kPa | 60000 kPa | 80000 kPa | 100000 kPa | 120000 kPa
m1 = 0.03621 | 1516.9 | 1533.8 | 1567.4 | 1600.8 | 1634.2 | 1667.4 | 1700.2
m1 = 0.0487 | 1518.2 | 1535 | 1568.6 | 1602.1 | 1635.5 | 1668.6 | 1701.4
m1 = 0.06185 | 1519.5 | 1536.3 | 1570 | 1603.4 | 1636.8 | 1669.9 | 1702.8
m1 = 0.07503 | 1520.8 | 1537.7 | 1571.3 | 1604.8 | 1638.2 | 1671.3 | 1704
m1 = 0.08705 | 1522.1 | 1538.9 | 1572.5 | 1606.1 | 1639.4 | 1672.5 | 1705.2
m1 = 0.1005 | 1523.3 | 1540.2 | 1573.8 | 1607.4 | 1640.7 | 1673.8 | 1706.6
